What was measured:
Adenosine receptor A2a [1] = target: T1, Adenosine receptor A2a (Homo sapiens, UniProt P29274); assay: Displacement of [3H]CGS21680 from human recombinant adenosine A2a receptor expressed in HEK293 cells at 10 uM by liquid scintillation counting; type: cell-based
Adenosine receptor A3 [2] = target: T2, Adenosine receptor A3 (Rattus norvegicus, UniProt P28647); assay: Binding affinity to rat adenosine A3 receptor
T2 sequence (P28647 whole entry): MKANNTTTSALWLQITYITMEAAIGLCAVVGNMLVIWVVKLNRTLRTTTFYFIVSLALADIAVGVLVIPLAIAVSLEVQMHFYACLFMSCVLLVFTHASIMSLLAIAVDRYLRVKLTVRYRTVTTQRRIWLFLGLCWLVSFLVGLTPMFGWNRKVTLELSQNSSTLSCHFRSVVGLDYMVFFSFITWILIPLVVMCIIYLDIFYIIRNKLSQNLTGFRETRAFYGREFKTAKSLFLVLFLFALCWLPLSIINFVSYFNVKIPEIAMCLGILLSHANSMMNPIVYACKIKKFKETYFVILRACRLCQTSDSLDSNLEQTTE

Adenosine receptor A3 [3] = target: T3, Adenosine receptor A3 (Homo sapiens, UniProt P0DMS8); assay: Displacement of [125I]I-AB-MECA from human recombinant adenosine A3 receptor expressed in CHO cells by liquid scintillation counting
T3 sequence (P0DMS8 whole entry): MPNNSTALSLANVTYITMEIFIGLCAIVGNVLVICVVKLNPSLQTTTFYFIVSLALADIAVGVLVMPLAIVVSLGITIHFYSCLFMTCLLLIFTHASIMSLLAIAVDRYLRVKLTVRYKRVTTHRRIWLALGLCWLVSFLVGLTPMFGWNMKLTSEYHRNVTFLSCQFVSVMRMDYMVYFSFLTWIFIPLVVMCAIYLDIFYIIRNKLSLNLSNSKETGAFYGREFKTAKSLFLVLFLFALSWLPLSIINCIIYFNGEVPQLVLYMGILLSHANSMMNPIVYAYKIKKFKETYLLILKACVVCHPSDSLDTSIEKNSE

[4] = target: T4, Adenosine receptor A1 (Homo sapiens) (UniProt P30542); assay: Displacement of [3H]NECA from human recombinant adenosine A1 receptor expressed in CHO cells at 10 uM by liquid scintillation counting; type: cell-based
T4 sequence (whole entry): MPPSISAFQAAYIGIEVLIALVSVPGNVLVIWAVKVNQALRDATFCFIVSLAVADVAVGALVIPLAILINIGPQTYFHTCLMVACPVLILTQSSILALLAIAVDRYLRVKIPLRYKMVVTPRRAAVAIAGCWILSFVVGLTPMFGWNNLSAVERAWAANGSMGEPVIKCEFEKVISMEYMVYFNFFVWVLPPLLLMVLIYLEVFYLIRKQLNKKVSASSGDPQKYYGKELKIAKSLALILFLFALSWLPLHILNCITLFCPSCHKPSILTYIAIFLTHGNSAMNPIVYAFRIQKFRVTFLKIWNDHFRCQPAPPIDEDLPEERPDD

Adenosine receptor A2a [5] = target: T1, Adenosine receptor A2a; assay: Displacement of [3H]CGS21680 from human recombinant adenosine A2a receptor expressed in HEK293 cells by liquid scintillation counting; type: cell-based

T1 sequence (P29274 whole entry): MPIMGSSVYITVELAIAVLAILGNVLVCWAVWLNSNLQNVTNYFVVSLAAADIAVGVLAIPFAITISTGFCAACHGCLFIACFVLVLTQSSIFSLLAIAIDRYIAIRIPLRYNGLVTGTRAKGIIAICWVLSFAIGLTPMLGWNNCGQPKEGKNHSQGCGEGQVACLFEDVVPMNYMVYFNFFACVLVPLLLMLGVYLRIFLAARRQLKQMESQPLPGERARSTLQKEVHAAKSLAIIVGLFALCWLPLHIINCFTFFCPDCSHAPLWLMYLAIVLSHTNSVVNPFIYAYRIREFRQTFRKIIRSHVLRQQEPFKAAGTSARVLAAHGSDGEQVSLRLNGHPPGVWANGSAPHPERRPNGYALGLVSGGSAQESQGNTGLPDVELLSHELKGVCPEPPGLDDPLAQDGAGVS

inhibition (Adenosine receptor A2a [1]) [%]	Ki (Adenosine receptor A3 [2]) [µM]	Ki (Adenosine receptor A3 [3]) [µM]	inhibition [4] [%]	Ki (Adenosine receptor A2a [5]) [µM]	Structure (SMILES)
30	0.0828				O[C@@H]1[C@H](O)CO[C@H]1n1cnc2c(NCc3cccc(Br)c3)nc(Cl)nc21
42		0.284	43		O[C@@H]1[C@H](O)CO[C@H]1n1cnc2c(NCc3cccc(F)c3)nc(Cl)nc21
		0.075		3.63	O[C@@H]1[C@H](O)CO[C@H]1n1cnc2c(NCc3cccc(Cl)c3)nc(Cl)nc21
43					O[C@@H]1[C@H](O)CO[C@H]1n1cnc2c(NCc3cccc(I)c3)nc(Cl)nc21

Continued, molecule first:

Structure (SMILES)	inhibition (Adenosine receptor A2a [1]) [%]	Ki (Adenosine receptor A3 [2]) [µM]	Ki (Adenosine receptor A3 [3]) [µM]	inhibition [4] [%]	Ki (Adenosine receptor A2a [5]) [µM]
O[C@@H]1[C@H](O)CO[C@H]1n1cnc2c(NCc3cccc(Br)c3)ncnc21			0.059		1.4
CNc1ncnc2c1ncn2[C@@H]1OC[C@@H](O)[C@H]1O	25		0.0701	44	
CNc1nc(Cl)nc2c1ncn2[C@@H]1OC[C@@H](O)[C@H]1O	15		0.0375	49	
O[C@@H]1[C@H](O)CO[C@H]1n1cnc2c(NCc3cccc(Cl)c3)ncnc21			0.0761		3.41
O[C@@H]1[C@H](O)CO[C@H]1n1cnc2c(NCc3cccc(I)c3)ncnc21			0.0902		0.997
O[C@@H]1[C@H](O)CO[C@H]1n1cnc2c(NCc3cccc(F)c3)ncnc21			0.537	36	6.56
